US20170066759A1, “AROMATIC 5-MEMBERED HETEROCYCLIC DERIVATIVE HAVING TRPV4-INHIBITING ACTIVITY” (Shionogi & Co., Ltd., priority 2012, published 2017)

biological target: T1, human TRPV4 (hTRPV4/CHO cells) (Homo sapiens, UniProt Q9HBA0); experiment: Test Example 1: TRPV4 inhibitory activity (IC50 value), 4α-PDD stimulation, Fluo4 calcium fluorescence (FLIPR TETRA); type: cell-based; settings: Test Example 1, 4α-PDD stimulation, read-out: Test 1 IC50
T1 construct: expressed in transfected cells; host or cells: CHO-K1
T1 sequence (Q9HBA0 whole entry): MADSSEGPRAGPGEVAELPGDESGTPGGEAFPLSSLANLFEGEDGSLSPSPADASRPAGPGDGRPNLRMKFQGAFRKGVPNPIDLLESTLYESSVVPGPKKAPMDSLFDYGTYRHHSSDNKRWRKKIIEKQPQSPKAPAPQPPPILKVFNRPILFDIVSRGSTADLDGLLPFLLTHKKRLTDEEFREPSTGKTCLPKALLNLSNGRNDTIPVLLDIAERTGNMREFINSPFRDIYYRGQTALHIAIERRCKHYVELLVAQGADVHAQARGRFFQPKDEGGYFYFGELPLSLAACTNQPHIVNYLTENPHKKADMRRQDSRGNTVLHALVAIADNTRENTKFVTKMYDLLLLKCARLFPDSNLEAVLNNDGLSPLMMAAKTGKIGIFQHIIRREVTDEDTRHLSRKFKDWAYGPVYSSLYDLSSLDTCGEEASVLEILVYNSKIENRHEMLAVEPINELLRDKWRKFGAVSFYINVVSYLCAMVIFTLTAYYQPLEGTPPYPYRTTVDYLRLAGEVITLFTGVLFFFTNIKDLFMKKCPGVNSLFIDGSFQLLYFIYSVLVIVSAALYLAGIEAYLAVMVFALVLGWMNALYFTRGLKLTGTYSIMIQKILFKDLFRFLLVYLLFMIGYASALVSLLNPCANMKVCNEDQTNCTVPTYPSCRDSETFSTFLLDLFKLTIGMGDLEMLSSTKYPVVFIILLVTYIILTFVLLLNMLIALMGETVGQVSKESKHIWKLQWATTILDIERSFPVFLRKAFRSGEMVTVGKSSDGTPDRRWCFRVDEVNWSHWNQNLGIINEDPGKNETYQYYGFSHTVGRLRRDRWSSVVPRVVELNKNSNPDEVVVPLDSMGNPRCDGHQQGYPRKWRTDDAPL

IC50	Structure (SMILES)
1000 to 8000 nM	Cc1nc(C)c(-c2csc(NC(=O)Cn3cc(-c4cncnc4)cn3)n2)s1 [Compound I-167]
< 100 nM	Cc1nc(C)c(-c2csc(NC(=O)Cc3cc(Br)cc(C(=O)N[C@H](c4ccccc4)C(F)(F)F)c3)n2)s1 [Compound I-510]
100 to 1000 nM	CC(OC(N)=O)c1nc(CO)sc1-c1csc(NC(=O)Cc2ccc(S(=O)(=O)C(F)(F)F)cc2)n1 (single isomer, unassigned) [Compound I-478]
1000 to 8000 nM	Cc1nc(C(O)CC(=O)O)sc1-c1csc(NC(=O)Cc2c(F)cccc2F)n1 (stereo not shown) [Compound I-135]
1000 to 8000 nM	CCOC(=O)C(C)(C)N1CC(C(=O)Nc2nc(-c3sc(C)nc3C)cs2)C1 [Compound I-279]
100 to 1000 nM	Cc1nc(C(C)O)sc1-c1csc(NC(=O)C2CCN(c3ccccc3)C2)n1 (stereo not shown) [Compound I-295]
< 100 nM	Cc1nc(C)c(-c2csc(NC(=O)Cc3cccc(C(=O)N[C@H](c4ccccc4)C(F)(F)F)c3)n2)s1 [Compound I-489]
< 100 nM	COCCOc1cc(CC(=O)Nc2nc(-c3sc(C)nc3C)cs2)cc(C(=O)N[C@H](c2ccccc2)C(F)(F)F)c1 [Compound I-513]
100 to 1000 nM	Cc1nc(CO)sc1-c1csc(NC(=O)C2CN(S(=O)(=O)C(F)(F)F)C2)n1 [Compound I-403]
< 100 nM	Cc1nc(C)c(-c2csc(NC(=O)C3CN(c4ccccc4C(F)(F)F)C3)n2)s1 [Compound I-280]
< 100 nM	Cc1nc(C)c(-c2csc(NC(=O)Cc3cccc(Br)c3)n2)s1 [Compound I-408]
< 100 nM	Cc1nc(C)c(-c2csc(NC(=O)C3Cc4ccccc4N3C(=O)C(F)(F)F)n2)s1 (stereo not shown) [Compound I-176]
100 to 1000 nM	Cc1[nH]c(=O)sc1-c1csc(NC(=O)Cc2ccc(S(=O)(=O)C(F)(F)F)cc2)n1 [Compound I-451]
< 100 nM	Cc1nc(CO)sc1-c1csc(NC(=O)C2CCN(c3ccccc3)C2)n1 (stereo not shown) [Compound I-185]
1000 to 8000 nM	Cc1nc(C(=O)NC#N)sc1-c1csc(NC(=O)Cc2c(F)cccc2F)n1 [Compound I-108]
100 to 1000 nM	O=C(Nc1nc(-c2sc(CO)nc2CO)cs1)C1CN(c2ccccc2Cl)C1 [Compound I-342]
< 100 nM	O=C(Cc1ccc(S(=O)(=O)C(F)(F)F)cc1)Nc1nc(-c2sc(CO)nc2CO)cs1 [Compound I-174]
100 to 1000 nM	Cc1nc(C)c(-c2csc(NC(=O)CN3CCOC(c4ccccc4)C3)n2)s1 (stereo not shown) [Compound I-170]
< 100 nM	Cc1nc(C)c(-c2csc(NC(=O)C3CN(S(=O)(=O)c4ccc(C(F)(F)F)cc4)C3)n2)s1 [Compound I-264]
< 100 nM	COC(=O)NCc1nc(CO)sc1-c1csc(NC(=O)Cc2ccc(S(=O)(=O)C(F)(F)F)cc2)n1 [Compound I-435]
1000 to 8000 nM	Cc1nc(C)c(-c2nc(NC(=O)Cc3c(F)cccc3F)sc2-c2ccsc2)s1 [Compound I-538]
100 to 1000 nM	Cc1nc(C(F)F)sc1-c1csc(NC(=O)Cn2cc(Cl)cn2)n1 [Compound I-110]
1000 to 8000 nM	CC(=O)NC(C)c1nc(CO)sc1-c1csc(NC(=O)Cc2ccc(S(=O)(=O)C(F)(F)F)cc2)n1 (racemic) [Compound I-472]
< 100 nM	Cc1nc(CO)sc1-c1csc(NC(=O)C2CN(C(=O)OC(C)(C)C(F)(F)F)C2)n1 [Compound I-329]
100 to 1000 nM	CC(O)c1nc(CO)c(-c2csc(NC(=O)Cc3ccc(S(=O)(=O)C(F)(F)F)cc3)n2)s1 (racemic) [Compound I-500]
100 to 1000 nM	NC(=O)NCc1nc(CO)sc1-c1csc(NC(=O)Cc2ccc(S(=O)(=O)C(F)(F)F)cc2)n1 [Compound I-381]

IC50	Structure (SMILES)
1000 to 8000 nM	Cc1nc(C)c(-c2nc(NC(=O)Cc3c(F)cccc3F)sc2C(=O)Nc2cccc(Cl)c2)s1 [Compound I-82]
< 100 nM	Cc1nc(C)c(-c2csc(NC(=O)Cc3ccc(S(=O)(=O)N(C)c4ccc(C#N)cc4)cc3)n2)s1 [Compound I-163]
100 to 1000 nM	Cc1nc(C)c(-c2csc(NC(=O)Cn3cc(Cn4cccc4)nn3)n2)s1 [Compound I-428]
< 100 nM	Cc1nc(CO)sc1-c1csc(NC(=O)C2CN(c3cccnc3Br)C2)n1 [Compound I-311]
1000 to 8000 nM	Cc1nc(C)c(-c2csc(NC(=O)C3CC3(F)F)n2)s1 (stereo not shown) [Compound I-120]
1000 to 8000 nM	O=C(Nc1nc(-c2sc(CO)nc2CO)cs1)[C@H]1C[C@@H](NCc2ccc(C(F)(F)F)cc2)C1 [Compound I-317]
100 to 1000 nM	Cc1nc(C)c(-c2csc(NC(=O)[C@@H]3CC[C@H](c4ccccc4)N3)n2)s1 [Compound I-216]
< 100 nM	Cc1nc(CO)sc1-c1csc(NC(=O)CC2CC3(CCC3)C2)n1 [Compound I-457]
1000 to 8000 nM	Cc1nc(C)c(-c2csc(NC(=O)[C@@H]3C[C@@H](N4CCCCC4)CN3C(=O)OC(C)(C)C)n2)s1 [Compound I-275]
1000 to 8000 nM	Cc1nc(C)c(-c2csc(NC(=O)Cn3cc(C#N)cn3)n2)s1 [Compound I-123]
100 to 1000 nM	Cc1nc(C)c(-c2csc(NC(=O)Cc3ccc(S(=O)(=O)CC(F)F)cc3)n2)s1 [Compound I-143]
< 100 nM	Cc1nc(CCO)sc1-c1csc(NC(=O)Cc2ccc(S(=O)(=O)C(F)(F)F)cc2)n1 [Compound I-437]
< 100 nM	Cc1nc(CO)sc1-c1csc(NC(=O)[C@H]2C[C@@H](N(C)Cc3ccc(C(F)(F)F)cc3)C2)n1 [Compound I-318]
1000 to 8000 nM	Cc1nc(C)c(-c2csc(NC(=O)N3CCC(C(F)(F)F)CC3)n2)s1 [Compound I-89]
< 100 nM	Cc1nc(CO)sc1-c1csc(NC(=O)C2CN(c3ccc(C(F)(F)F)nc3)C2)n1 [Compound I-309]
100 to 1000 nM	Cc1nc(C)c(-c2csc(NC(=O)Cn3cc(-c4ccc(S(C)(=O)=O)cc4)nn3)n2)s1 [Compound I-422]
< 100 nM	O=C(Nc1nc(-c2sc(CO)nc2CO)cs1)C1CN(c2ccc(Cl)cc2)C1 [Compound I-343]
< 100 nM	COc1cc(CC(=O)Nc2nc(-c3sc(C)nc3C)cs2)cc(C(=O)NC(C)(C)C(F)(F)F)c1 [Compound I-528]
< 100 nM	Cc1nc(COC(N)=O)c(-c2csc(NC(=O)Cc3ccc(S(=O)(=O)C(F)(F)F)cc3)n2)s1 [Compound I-468]
100 to 1000 nM	Cc1nc(CO)c(-c2csc(NCCc3c(F)cccc3F)n2)s1 [II-3]
< 100 nM	Cc1nc(C)c(-c2csc(NC(=O)[C@H]3C[C@H](N(C)Cc4ccc(C(F)(F)F)cc4)C3)n2)s1 [Compound I-368]
< 100 nM	Cc1nc(CO)sc1-c1csc(NC(=O)C2CCN(c3ccc(Cl)cc3)C2)n1 (stereo not shown) [Compound I-204]
100 to 1000 nM	Cc1nc(CN2NCCC2=O)c(-c2csc(NC(=O)Cc3ccc(S(=O)(=O)C(F)(F)F)cc3)n2)s1 [Compound I-487]
100 to 1000 nM	Cc1nc(C)c(-c2csc(NC(=O)CC3CN(c4ccc(C(F)(F)F)cn4)C3)n2)s1 [Compound I-493]
100 to 1000 nM	Cc1nc(C)c(-c2csc(NC(=O)[C@H]3C[C@@H](c4ccccc4)CN3C(=O)OC(C)(C)C)n2)s1 [Compound I-243]
100 to 1000 nM	O=C(Nc1nc(-c2sc(CO)nc2CO)cs1)C1CCC(C(F)(F)F)CC1 (stereo not shown) [Compound I-253]

IC50	Structure (SMILES)
< 100 nM	Cc1nc(C)c(-c2csc(NCCc3ccc(Cl)cc3)n2)s1 [II-36]
1000 to 8000 nM	Cc1nc(C)c(-c2csc(N(CCCN3CCOCC3)C(=O)Cc3ccc(S(=O)(=O)C(F)(F)F)cc3)n2)s1 [Compound I-364]
1000 to 8000 nM	Cc1nc(CO)sc1-c1csc(NC(=O)[C@H]2C[C@@H](F)C2)n1 [Compound I-203]
< 100 nM	Cc1nc(C)c(-c2csc(NC(=O)Cc3cccc(NC(=O)C(F)(F)F)c3)n2)s1 [Compound I-417]
< 100 nM	Cc1nc(C)c(-c2csc(NC(=O)Cn3cc(COc4ccccc4)nn3)n2)s1 [Compound I-424]
100 to 1000 nM	CC(C)(F)C(=O)N1C[C@H](c2ccccc2)C[C@H]1C(=O)Nc1nc(-c2sc(CO)nc2CO)cs1 [Compound I-349]
1000 to 8000 nM	Cc1nc(C)c(-c2csc(NCC(F)(F)c3ccccc3)n2)s1 [II-33]
100 to 1000 nM	Cc1nc(C(C)(C)O)c(-c2csc(NC(=O)Cc3c(F)cccc3F)n2)s1 [Compound I-128]
100 to 1000 nM	Cc1nc(C)c(-c2csc(NC(=O)C3CC(c4ccccc4)=NO3)n2)s1 (stereo not shown) [Compound I-206]
1000 to 8000 nM	Cc1nc(C)c(-c2csc(CCOCc3ccc(Br)cc3)n2)s1 [II-51]
1000 to 8000 nM	Cc1nc(C(N)=O)sc1-c1csc(NC(=O)C2CC2(F)F)n1 (stereo not shown) [Compound I-106]
100 to 1000 nM	Cc1nc(C)c(-c2csc(NC(=O)Cc3ccc(S(=O)(=O)N4CCOCC4)cc3)n2)s1 [Compound I-157]
< 100 nM	NC(=O)NCc1nc(CO)sc1-c1csc(NC(=O)C2CN(c3ccc(C(F)(F)F)cc3)C2)n1 [Compound I-345]
< 100 nM	Cc1nc(C(C)O)sc1-c1csc(NC(=O)C2CN(c3ccc(C(F)(F)F)cc3)C2)n1 (racemic) [Compound I-467]
1000 to 8000 nM	Cc1nc(CO)sc1-c1csc(NC(=O)Cn2cnc(C(F)(F)F)c2)n1 [Compound I-406]
100 to 1000 nM	NCc1nc(CO)sc1-c1csc(NC(=O)C2CN(c3ccc(C(F)(F)F)cc3)C2)n1 [Compound I-340]
< 100 nM	O=C(Nc1nc(-c2sc(CO)nc2CCCO)cs1)C1CN(c2ccc(C(F)(F)F)cc2)C1 [Compound I-348]
< 100 nM	O=C(Nc1nc(-c2sc(CO)nc2CO)cs1)C1CN(c2ccccc2C(F)(F)F)C1 [Compound I-327]
100 to 1000 nM	Cc1ccc(-c2csc(NC(=O)C3CC(F)C3)n2)s1 (stereo not shown) [II-5]
1000 to 8000 nM	Cc1nc(CNS(C)(=O)=O)sc1-c1csc(NC(=O)Cc2ccc(S(=O)(=O)C(F)(F)F)cc2)n1 [Compound I-399]
< 100 nM	Cc1nc(C)c(-c2csc(NC(=O)Cc3ccc(C(F)(F)F)cn3)n2)s1 [Compound I-104]
< 100 nM	Cc1nc(C)c(-c2csc(NC(=O)CN3CCC[C@H](c4ccccc4)C3)n2)s1 [Compound I-184]
< 100 nM	Cc1nc(C)c(-c2csc(NC(=O)C3(CC(=O)OC(C)(C)C)CN(c4ccc(C(F)(F)F)cc4)C3)n2)s1 (racemic) [Compound I-519]
1000 to 8000 nM	CCOc1cn(CC(=O)Nc2nc(-c3sc(C)nc3C)cs2)nn1 [Compound I-431]
